Columns and labels:
[1] = system: blackgrass (Alopecurus myosuroides); test: Test A postemergence, blackgrass; format: in vivo; settings: Alopecurus myosuroides, post-emergence, 240 h, 0 to 100 scale (0 no effect, 100 complete control), read-out: Plant response rating, Blackgrass; for pest or weed control at 31 g/ha: 31 g ai/ha; for pest or weed control at 125 g/ha: 125 g ai/ha
From the text: (§1) Seeds of plant species selected from barnyardgrass (Echinochloa crus-galli), kochia (Kochia scoparia), ragweed (common ragweed, Ambrosia elatior), ryegrass, Italian (Italian ryegrass, Lolium multiflorum), foxtail, giant (giant foxtail, Setaria faberii), foxtail, green (green foxtail, Setaria viridis) and pigweed (Amaranthus retroflexus) were planted into a blend of loam soil and sand and treated preemergence with a directed soil spray using test chemicals formulated in a non-phytotoxic solvent mixture which included a surfactant.
(§2) At the same time, plants selected from these weed species and also wheat (Triticum aestivum), corn (Zea mays), blackgrass (Alopecurus myosuroides), and galium (catchweed bedstraw, Galium aparine) were planted in pots containing the same blend of loam soil and sand and treated with postemergence applications of test chemicals formulated in the same manner. Plants ranged in height from 2 to 10 cm and were in the one- to two-leaf stage for the postemergence treatment. Treated plants and untreated controls were maintained in a greenhouse for approximately 10 days, after which time all treated plants were compared to untreated controls and visually evaluated for injury. […] A dash (-) response means no test result.

[2] = system: barnyardgrass (Echinochloa crus-galli); test: Test A postemergence, barnyardgrass; format: in vivo; settings: Echinochloa crus-galli, post-emergence, 240 h, 0 to 100 scale (0 no effect, 100 complete control), read-out: Plant response rating, Barnyardgrass; for pest or weed control at 31 g/ha: 31 g ai/ha; for pest or weed control at 125 g/ha: 125 g ai/ha
From the text: as §1, §2

[3] = system: ragweed (common ragweed, Ambrosia elatior); test: Test A preemergence, ragweed; format: in vivo; settings: Ambrosia artemisiifolia, pre-emergence, 240 h, 0 to 100 scale (0 no effect, 100 complete control), read-out: Plant response rating, Ragweed; for pest or weed control at 31 g/ha: 31 g ai/ha; for pest or weed control at 125 g/ha: 125 g ai/ha
From the text: as §1, §2

rice (Oryza sativa) = test: Test B flooded paddy test, rice; settings: Oryza sativa, read-out: Plant response rating, Rice (0 to 100 scale, 0 is no effect, 100 is complete control)
[4] = system: pigweed (Amaranthus retroflexus); test: Test A preemergence, pigweed; format: in vivo; settings: Amaranthus retroflexus, pre-emergence, 240 h, 0 to 100 scale (0 no effect, 100 complete control), read-out: Plant response rating, Pigweed; for pest or weed control at 31 g/ha: 31 g ai/ha; for pest or weed control at 125 g/ha: 125 g ai/ha
From the text: as §1, §2

[5] = system: barnyardgrass (Echinochloa crus-galli); test: Test B flooded paddy test, barnyardgrass; settings: Echinochloa crus-galli, read-out: Plant response rating, Barnyardgrass (0 to 100 scale, 0 is no effect, 100 is complete control)
[6] = system: ragweed (common ragweed, Ambrosia elatior); test: Test A postemergence, ragweed; format: in vivo; settings: Ambrosia artemisiifolia, post-emergence, 240 h, 0 to 100 scale (0 no effect, 100 complete control), read-out: Plant response rating, Ragweed; for pest or weed control at 31 g/ha: 31 g ai/ha; for pest or weed control at 125 g/ha: 125 g ai/ha
From the text: as §1, §2

corn (Zea mays) = test: Test A postemergence, corn; format: in vivo; settings: Zea mays, post-emergence, 240 h, 0 to 100 scale (0 no effect, 100 complete control); for Corn plant response rating (crop injury, 0 = no effect, 100 = complete kill) at 31 g/ha: 31 g ai/ha; for Corn plant response rating (crop injury, 0 = no effect, 100 = complete kill) at 125 g/ha: 125 g ai/ha
From the text: as §1, §2

kochia (Kochia scoparia) [7] = test: Test A preemergence, kochia; format: in vivo; settings: Bassia scoparia, pre-emergence, 240 h, 0 to 100 scale (0 no effect, 100 complete control), read-out: Plant response rating, Kochia; for pest or weed control at 31 g/ha: 31 g ai/ha; for pest or weed control at 125 g/ha: 125 g ai/ha
From the text: as §1, §2

[8] = system: wheat (Triticum aestivum); test: Test A postemergence, wheat; format: in vivo; settings: Triticum aestivum, post-emergence, 240 h, 0 to 100 scale (0 no effect, 100 complete control), read-out: Plant response rating, Wheat; for plant injury at 31 g/ha: 31 g ai/ha; for plant injury at 125 g/ha: 125 g ai/ha
From the text: as §1, §2

kochia (Kochia scoparia) [9] = test: Test A postemergence, kochia; format: in vivo; settings: Bassia scoparia, post-emergence, 240 h, 0 to 100 scale (0 no effect, 100 complete control), read-out: Plant response rating, Kochia; for pest or weed control at 31 g/ha: 31 g ai/ha; for pest or weed control at 125 g/ha: 125 g ai/ha
From the text: as §1, §2

[10] = system: ryegrass, Italian (Italian ryegrass, Lolium multiflorum); test: Test A postemergence, ryegrass, Italian; format: in vivo; settings: Lolium multiflorum, post-emergence, 240 h, 0 to 100 scale (0 no effect, 100 complete control), read-out: Plant response rating, Ryegrass, Italian; for pest or weed control at 31 g/ha: 31 g ai/ha; for pest or weed control at 125 g/ha: 125 g ai/ha
From the text: as §1, §2

[11] = system: ducksalad (Heteranthera limosa); test: Test B flooded paddy test, ducksalad; settings: Heteranthera limosa, read-out: Plant response rating, Ducksalad (0 to 100 scale, 0 is no effect, 100 is complete control)
[12] = system: galium (catchweed bedstraw, Galium aparine); test: Test A postemergence, galium; format: in vivo; settings: Galium, post-emergence, 240 h, 0 to 100 scale (0 no effect, 100 complete control), read-out: Plant response rating, Galium; for pest or weed control at 31 g/ha: 31 g ai/ha; for pest or weed control at 125 g/ha: 125 g ai/ha
From the text: as §1, §2

[13] = system: pigweed (Amaranthus retroflexus); test: Test A postemergence, pigweed; format: in vivo; settings: Amaranthus retroflexus, post-emergence, 240 h, 0 to 100 scale (0 no effect, 100 complete control), read-out: Plant response rating, Pigweed; for pest or weed control at 31 g/ha: 31 g ai/ha; for pest or weed control at 125 g/ha: 125 g ai/ha
From the text: as §1, §2

[14] = system: barnyardgrass (Echinochloa crus-galli); test: Test A preemergence, barnyardgrass; format: in vivo; settings: Echinochloa crus-galli, pre-emergence, 240 h, 0 to 100 scale (0 no effect, 100 complete control), read-out: Plant response rating, Barnyardgrass; for pest or weed control at 31 g/ha: 31 g ai/ha; for pest or weed control at 125 g/ha: 125 g ai/ha
From the text: as §1, §2

[15] = system: ryegrass, Italian (Italian ryegrass, Lolium multiflorum); test: Test A preemergence, ryegrass, Italian; format: in vivo; settings: Lolium multiflorum, pre-emergence, 240 h, 0 to 100 scale (0 no effect, 100 complete control), read-out: Plant response rating, Ryegrass, Italian; for pest or weed control at 31 g/ha: 31 g ai/ha; for pest or weed control at 125 g/ha: 125 g ai/ha
From the text: as §1, §2

Row | SMILES | pest or weed control at 31 g/ha [1] | pest or weed control at 125 g/ha [1] | pest or weed control at 31 g/ha [2] | pest or weed control at 125 g/ha [2] | pest or weed control at 31 g/ha [3] | pest or weed control at 125 g/ha [3] | plant injury at 250 g/ha (rice (Oryza sativa)) | pest or weed control at 31 g/ha [4] | pest or weed control at 125 g/ha [4] | pest or weed control at 250 g/ha [5] | pest or weed control at 31 g/ha [6] | pest or weed control at 125 g/ha [6] | Corn plant response rating (crop injury, 0 = no effect, 100 = complete kill) at 31 g/ha (corn (Zea mays)) | Corn plant response rating (crop injury, 0 = no effect, 100 = complete kill) at 125 g/ha (corn (Zea mays)) | pest or weed control at 31 g/ha (kochia (Kochia scoparia) [7]) | pest or weed control at 125 g/ha (kochia (Kochia scoparia) [7]) | plant injury at 31 g/ha [8] | plant injury at 125 g/ha [8] | pest or weed control at 31 g/ha (kochia (Kochia scoparia) [9]) | pest or weed control at 125 g/ha (kochia (Kochia scoparia) [9]) | other results
1 | O=C1Cc2cccc(Oc3ncc(Cl)cn3)c2C(CCC(F)(F)F)O1 (centres unmarked) [Compound 28, 8-[(5-Chloro-2-pyrimidinyl)oxy]-1,4-dihydro-1-(3,3,3-trifluoropropyl)-3H-2-benzopyran-3-one] | 10% | 60% | 0% | 10% | 0% | 0% | 0% | 10% | 100% | 0% | 10% | 20% | 10% | 20% | 0% | 50% | 0% | 0% | 20% | 70% | pest or weed control at 31 g/ha [10]: 0%; pest or weed control at 125 g/ha [10]: 0%; pest or weed control at 250 g/ha [11]: 0%; pest or weed control at 31 g/ha [12]: 20%; pest or weed control at 125 g/ha [12]: 60%; pest or weed control at 31 g/ha [13]: 30%; pest or weed control at 125 g/ha [13]: 70%; pest or weed control at 31 g/ha [14]: 0%; pest or weed control at 125 g/ha [14]: 60%; pest or weed control at 31 g/ha [15]: 0%; pest or weed control at 125 g/ha [15]: 10%
2 | FC(F)(F)CC[C@@H]1OCc2cccc(Oc3ncc(Cl)cn3)c21 [Compound 21, 5-Chloro-2-[[(3S)-1,3-dihydro-3-(3,3,3-trifluoropropyl)-4-isobenzofuranyl]oxy]-pyrimidine] | 10% | 30% | 0% | 20% | 0% | 0% | 0% | 0% | 0% | 0% | 0% | 10% | 0% | 20% | 0% | 0% | 0% | 0% | 20% | 60% | pest or weed control at 31 g/ha [10]: 0%; pest or weed control at 125 g/ha [10]: 0%; pest or weed control at 250 g/ha [11]: 70%; pest or weed control at 31 g/ha [12]: 10%; pest or weed control at 125 g/ha [12]: 30%; pest or weed control at 31 g/ha [13]: 20%; pest or weed control at 125 g/ha [13]: 50%; pest or weed control at 31 g/ha [14]: 0%; pest or weed control at 125 g/ha [14]: 20%; pest or weed control at 31 g/ha [15]: 0%; pest or weed control at 125 g/ha [15]: 0%

Reference: patent publication US11427549B2, “Pyrimidinyloxy benzo-fused compounds as herbicides” (FMC Corporation, priority 2017, dated 2022)
